Test results: patent US20240325394A1, “SALT AND CRYSTAL FORM OF NITROGEN-CONTAINING HETEROCYCLIC DERIVATIVE, PREPARATION METHOD THEREFOR AND APPLICATION THEREOF” (SHANGHAI HANSOH BIOMEDICAL CO., LTD., priority 2020, published 2024)

Tests used:
hERG potassium channel = target: T1, hERG potassium channel (Homo sapiens, UniProt Q12809); assay: hERG potassium channel inhibitory activity test (Qpatch, CHO-hERG cells); type: cell-based; conditions: highest test concentration 40 μM, read-out: hERG (μM), inhibition at multiple concentrations on hERG current
T1 construct: expressed in transfected cells; host or cells: CHO-hERG cells
Experimental: 7.1.1 CHO-hERG cells were cultured in a 175 cm^2 flask, when the cell density reached 60-80%, the culture medium was removed, the cells were washed with 7 mL PBS, and then digested with 3 mL Detachin. 7.1.2 After complete digestion, 7 mL culture medium was added to neutralize, then the mixture was centrifuged, the supernatant was aspirated, and then 5 mL culture medium was added to re-suspend, ensuring 2-5×10^6/mL of cell density.
The process of single cell high impedance sealing and whole cell mode formation were all automatically completed by Qpatch instrument, after obtaining the whole cell recording mode, the cells were clamped at −80 mV, before giving a 5-second +40 mV depolarization stimulus, a 50 millisecond −50 mV prevoltage was given first, and then repolarized to −50 mV for 5 seconds, then returned to −80 mV. This voltage stimulation was applied every 15 seconds and recorded for 2 minutes before giving extracellular fluid recordings for 5 minutes, and then the administration process was started, the compound concentration was given from the lowest test concentration, each test concentration was given for 2.5 minutes, and the positive control compound 3 μM of Cisapride was given after all concentrations were continuously given. At least 3 cells (n≥3) were tested at each concentration.
7.4.1 20 mM of compound mother liquor was diluted with extracellular fluid, 5 μL of 20 mM compound mother liquor was added into 2495 μL of extracellular fluid and diluted 500-fold to 40 μM, and then the final concentration to be tested was obtained by sequential 3-fold serial dilutions in extracellular solution containing 0.2% DMSO. 7.4.2 The highest test concentration was 40 μM, in a total of 6 concentrations of 40, 13.33, 4.44, 1.48, 0.49 and 0.16 μM respectively. 7.4.3 The content of DMSO in the final test concentration was not more than 0.2%, and this concentration of DMSO had no effect on hERG potassium channel.
The experimental data were analyzed by XLFit software. […]

[1] = Plasma stability, human plasma; type: in vitro ADME; conditions: human, 0.5 μM
Experimental: (§1) Animal or human whole blood was collected, then the blood was put into a test tube containing anticoagulant, centrifuged at 3500 rpm for 10 min, and the upper layer of pale yellow plasma was collected. • 2) 10 μM of tested compound (m/M/V=C)
(§2) The compound was weighed, the stock solution was prepared with DMSO and the working solution was prepared with 100 mM phosphate buffer. • 3) 10 μM of positive control • (1) Propantheline (Propantheline Mr=449.4 Da)
(§3) • 1) 285 μL of plasma and 15 μL of 10 μM compound (tested compound) were added in turn in a 96-well plate, and incubated at 37° C. • 2) 40 μL was taken out at 0, 15, 30, 60, 90, 120 min, respectively, and 160 μL of acetonitrile termination solution containing internal standard was added. • 3) After centrifugation (3500 rpm, 10 min), 50 μL of supernatant was taken out, and then diluted with 50 μL DDH2O and injected to LC-MS/MS.
(§4) • instrument: Shimadzu LC-20 AD • chromatographic column: phenomenex Gemiu® C18 (50*4.6 mm, 5 μM particle size); • mobile phase: A: acetonitrile, B: 0.1% formic acid solution 0-8 min: 5% A→95% A, 2.0-2.1 min: 90% A→5% A; flow rate: 0.8 mL/min; running time: 5.0 min; injection volume: 5 μL.
(§5) • instrument: API4000 Liquid Chromatography-Mass Spectrometry, AB, USA; • the ion source was electrospray ionization source (ESI); • the temperature of dry gas (N2) was 500° C.; • electrospray voltage was 5500V; • the detection method was positive ion detection; • the scanning mode was selective response monitoring (MRM); • the scanning time was 0.1 s.

[2] = Plasma stability, rat plasma; type: in vitro ADME; conditions: rat plasma, 37° C.
Experimental: as §1, §2, §3, §4, §5

[3] = Plasma stability, mouse plasma; type: in vitro ADME; conditions: mouse plasma, 37° C.
Experimental: as §1, §2, §3, §4, §5

[4] = Plasma stability, dog plasma; type: in vitro ADME; conditions: dog plasma, 37° C.
Experimental: as §1, §2, §3, §4, §5

T1 sequence (Q12809 whole entry): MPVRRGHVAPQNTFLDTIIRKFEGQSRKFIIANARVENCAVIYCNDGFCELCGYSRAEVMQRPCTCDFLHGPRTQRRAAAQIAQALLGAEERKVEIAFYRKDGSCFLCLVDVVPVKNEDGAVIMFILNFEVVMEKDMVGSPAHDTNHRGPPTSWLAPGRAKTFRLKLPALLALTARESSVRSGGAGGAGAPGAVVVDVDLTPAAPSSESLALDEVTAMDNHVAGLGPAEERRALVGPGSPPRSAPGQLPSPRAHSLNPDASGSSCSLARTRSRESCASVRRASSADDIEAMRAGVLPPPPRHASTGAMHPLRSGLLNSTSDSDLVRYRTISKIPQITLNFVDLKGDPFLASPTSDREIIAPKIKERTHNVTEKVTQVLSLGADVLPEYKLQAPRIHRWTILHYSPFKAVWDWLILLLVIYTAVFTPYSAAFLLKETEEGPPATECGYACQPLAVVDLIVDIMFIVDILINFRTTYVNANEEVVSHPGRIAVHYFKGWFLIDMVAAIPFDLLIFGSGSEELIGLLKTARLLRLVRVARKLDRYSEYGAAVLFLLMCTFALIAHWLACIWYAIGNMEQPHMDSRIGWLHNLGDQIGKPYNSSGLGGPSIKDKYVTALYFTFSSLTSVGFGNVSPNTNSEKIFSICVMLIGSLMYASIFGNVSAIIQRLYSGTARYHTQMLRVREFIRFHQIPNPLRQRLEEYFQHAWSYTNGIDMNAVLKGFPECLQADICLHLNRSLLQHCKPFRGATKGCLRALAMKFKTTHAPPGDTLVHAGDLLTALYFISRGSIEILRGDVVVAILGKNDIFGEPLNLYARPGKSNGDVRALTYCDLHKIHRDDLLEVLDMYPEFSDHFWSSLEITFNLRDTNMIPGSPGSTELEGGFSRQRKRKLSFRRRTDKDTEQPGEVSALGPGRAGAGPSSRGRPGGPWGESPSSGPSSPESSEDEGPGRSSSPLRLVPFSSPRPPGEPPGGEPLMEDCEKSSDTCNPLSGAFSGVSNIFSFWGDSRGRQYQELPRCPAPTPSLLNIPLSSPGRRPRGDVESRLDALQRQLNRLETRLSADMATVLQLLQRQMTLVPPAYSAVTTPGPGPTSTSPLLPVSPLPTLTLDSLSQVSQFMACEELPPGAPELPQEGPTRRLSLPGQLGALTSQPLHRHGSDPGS

C=CC(=O)N1C[C@H](C)N(c2nc(=O)n(-c3c(SC)ccnc3C(C)C)c3nc(-c4c(O)cccc4F)c(Cl)cc23)C[C@H]1C (atropisomer, axis not shown) [Embodiment 14-1, P-4-((2S,5R)-4-Acryloyl-2,5-dimethylpiperazin-1-yl)-6-chloro-7-(2-fluoro-6-hydroxyphenyl)-1-(2-isopropyl-4-(methylthio)pyridin-3-yl)pyrido[2,3-d]pyrimidin-2(1H)-one]
IC50 (hERG potassium channel): > 30 µM | Residual rate (%) 0 min ([1]; 0 min): 100.00% | Residual rate (%) 15 min ([1]; 15 min): 99.15% | Residual rate (%) 30 min ([1]; 30 min): 94.74% | Residual rate (%) 60 min ([1]; 60 min): 89.14% | Residual rate (%) 120 min ([1]; 120 min): 78.85% | Residual rate (%) 0 min ([2]; 0 min): 100.00% | Residual rate (%) 15 min ([2]; 15 min): 93.20% | Residual rate (%) 30 min ([2]; 30 min): 98.32% | Residual rate (%) 60 min ([2]; 60 min): 99.08% | Residual rate (%) 120 min ([2]; 120 min): 96.46% | Residual rate (%) 0 min ([3]; 0 min): 100.00% | Residual rate (%) 15 min ([3]; 15 min): 105.42% | Residual rate (%) 30 min ([3]; 30 min): 100.02% | Residual rate (%) 60 min ([3]; 60 min): 99.12% | Residual rate (%) 120 min ([3]; 120 min): 85.55% | Residual rate (%) 0 min ([4]; 0 min): 100.00% | Residual rate (%) 15 min ([4]; 15 min): 99.98% | Residual rate (%) 30 min ([4]; 30 min): 98.79% | Residual rate (%) 60 min ([4]; 60 min): 93.69% | Residual rate (%) 120 min ([4]; 120 min): 86.16%
